From patent US5521199A, “Piperidinyl compounds as neurokinin receptor antagonists” (Zeneca Limited, priority 1993, dated 1996)
Counter-ions that a name gives are not always drawn.

Columns and labels:
[1] = target: T1, human NK2 receptor (Homo sapiens, UniProt P21452); assay: Neurokinin A (NKA) Receptor-binding Assay (Test A); conditions: 3H-NKA, MELM, 60 min at 25° C., pH 7.4
T1 sequence (P21452 1-398): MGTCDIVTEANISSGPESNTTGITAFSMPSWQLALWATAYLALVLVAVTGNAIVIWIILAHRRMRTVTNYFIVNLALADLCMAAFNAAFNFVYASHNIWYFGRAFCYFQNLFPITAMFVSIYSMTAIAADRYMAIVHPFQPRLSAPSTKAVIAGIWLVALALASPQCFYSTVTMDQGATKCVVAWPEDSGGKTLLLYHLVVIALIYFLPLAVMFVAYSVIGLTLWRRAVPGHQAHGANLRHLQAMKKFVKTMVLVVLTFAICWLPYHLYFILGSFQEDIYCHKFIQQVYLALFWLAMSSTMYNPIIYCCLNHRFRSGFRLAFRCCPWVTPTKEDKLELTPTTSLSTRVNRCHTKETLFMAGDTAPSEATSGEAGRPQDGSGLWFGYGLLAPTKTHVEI
Protocol: Membrane preparations (MELM) prepared from the MEL cells containing high-affinity NK2 receptors were prepared according to a published protocol (D. Aharony, et al., Neuropeptides (1992) 23, 121-130) with the following minor modifications: (1) Iodoacetamide (1 mM) was included in the homogenization buffer; (2) Homogenization was as published but for a shorter period of 10 seconds once and at a slower speed (setting 10); and (3) The equilibration step with KCl/EDTA was not performed.

[2] = target: T2, guinea pig trachea (Cavia porcellus, UniProt Q64077); assay: Guinea Pig Trachea Assay (Test B); type: cell-based; conditions: antagonism of NKA or [β-ala8]-NKA(4-10) contraction; -log molar KB; read-out: pKB (Test B) (converted)
T2 construct: The trachea are removed, trimmed of excess tissue and divided into two segments; from tissue; host or cells: trachea of male guinea pigs, rings in tissue baths
T2 sequence (Q64077 1-402): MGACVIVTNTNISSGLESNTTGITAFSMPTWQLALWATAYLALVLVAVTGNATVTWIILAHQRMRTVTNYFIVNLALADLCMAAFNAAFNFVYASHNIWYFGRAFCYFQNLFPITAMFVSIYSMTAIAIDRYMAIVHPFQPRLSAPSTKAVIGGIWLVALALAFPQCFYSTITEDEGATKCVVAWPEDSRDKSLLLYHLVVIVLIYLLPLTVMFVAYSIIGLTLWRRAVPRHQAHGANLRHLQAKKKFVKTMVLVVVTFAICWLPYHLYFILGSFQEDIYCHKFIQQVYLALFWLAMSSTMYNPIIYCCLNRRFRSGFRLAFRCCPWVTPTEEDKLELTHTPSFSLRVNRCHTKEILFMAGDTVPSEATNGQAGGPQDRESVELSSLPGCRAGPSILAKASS
Protocol: Guinea Pig Trachea Assay (Test B)
In the test described below either NKA or [β-ala^8 ]-NKA(4-10) is used as an agonist. The chosen agonist is referred to as AG throughout the description.
Male guinea pigs are killed by a sharp blow to the back of the head. The trachea are removed, trimmed of excess tissue and divided into two segments. […] Initial tension placed on each tissue is 1 g, which is maintained throughout a 0.5 to 1.5 hour equilibration period before addition of other drugs. Contractile responses are measured on a Grass polygraph via Grass FT-03 force transducers.
Tissues are challenged repetitively with a single concentration of AG (10 nM) with intervening 30 min periods with washing to allow the tension to return to baseline levels. […] Percent inhibition is determined when a Compound produces a statistically significant (p<0.05) reduction of the contraction and is calculated using the second contractile response as 100%.
Potencies of selected Compounds are evaluated by calculating apparent dissociation constants (KB) for each concentration tested using the standard equation: […]
where dose ratio=antilog[(AG -log molar EC50 without Compound)--(AG -log molar EC50 with Compound)]. The KB values may be converted to the negative logarithms and expressed as -log molar KB (i.e. pKB). […] The EC50 values are converted to the negative logarithms and expressed as -log molar EC50. […]

[3] = tested on: NK2 receptor; assay: Guinea Pig Labored Abdominal Breathing (Dyspnea) Assay (Test C); type: in vivo; conditions: oral, two hours prior to challenge with the agonist [β-ala8]-NKA(4-10) aerosol; all five animals fully protected
Protocol: Guinea Pig Labored Abdominal Breathing (Dyspnea) Assay (Test C)
Using the clear plastic chamber described previously by Snyder et al. to secure guinea pigs for a head-only aerosol exposure to bronchoconstrictor agonists, agonist is administered by aerosol to six conscious guinea pigs simultaneously during each maneuver. The tachykinin NK2-selective agonist, [β-ala^8 ]-NKA(4-10), 3×10^-5 M, is aerosolized from a Devilbiss Model 25 ultrasonic nebulizer into an air stream entering the chamber at a rate of 2 L/minute.
Guinea pigs (275-400 g) are fasted for approximately 16 hours prior to experimentation. Compounds to be evaluated for blockade of effects of [β-ala^8 ]-NKA(4-10) or their vehicle (10% PEG400 in saline) are administered p.o. or i.v. at various times before aerosol agonist challenge. All animals are pretreated with atropine (10 mg/kg, j.p., 45 minutes pretreatment) indomethacin (10 mg/kg, i.p., 30 minutes pretreatment), propranolol (5 mg/kg, i.p., 30 minutes pretreatment), and thiorphan (1 mg/ml aerosol for 5 minutes, 15 minutes pretreatment)
Aerosol challenge with the agonist produces an initial increase in respiratory rate followed by a decrease with early signs of minor involvement of the abdominal muscles. […] Time, in seconds, from the onset of aerosol challenge to this end point is determined for each animal by using a stopwatch. […]

Compound | Ki [1] | Kb [2] | protection (Test C) [3]
CC(=O)OCCC1CCN(CCC(CN(C)C(=O)c2ccccc2)c2ccc(Cl)c(Cl)c2)CC1 (centres unmarked) [Example 10, N-[2-(3,4-Dichlorophenyl)-4-[4-(2-acetoxyethyl)piperidino]butyl]-N-methylbenzamide hydrochloride] | 40 nM | 15.8 nM | 
CCC(O)(CC)C1CCN(CC[C@H](CN(C)C(=O)c2ccccc2)c2ccc(Cl)c(Cl)c2)CC1.Cl [Example 16, (S)-N-[2-(3,4-Dichlorophenyl)-4-[4-(1-ethyl-1-hydroxypropyl)piperidino]butyl]-N-methylbenzamide hydrochloride] | 1.5 nM | 3.98 nM | 100%
